The test system of the assay is H929 and MM1R myeloma cell lines. Put plainly: MTS cellular cytotoxicity assay, single agent. It counts as cell-based. The procedure:
H929 and MM1R myeloma cell lines were cultured in vitro and cellular cytotoxicity was measured by MTS ([3-(4,5-dimethylthiazol-2-yl)-5-(3-carboxymethoxyphenyl)-2-(4-sulfophenyl)-2H-tetrazolium, inner salt) assay. The effect of the combination in terms of additive, antagonistic, or synergistic activity was assessed by Valeriote and Lin's method (Valeriote and Lin, Cancer Chemother Rep 1975; 59:895-900). […] To test the effect of the combination of all three drugs, cells were cultured with bendamustine (15 μg/ml) and doxorubicin (0.03 μg/ml) for 48 hours, and bortezomib (2.5 nmol/L) was added in the last 24 hours, and cytotoxicity was assayed.

With `Cl.Cn1c(CCCC(=O)O)nc2cc(N(CCCl)CCCl)ccc21` [bendamustine, 1H-benzimidazole-2-butanoic acid, 5-[bis(2-chloroethyl)amino]-1-methyl-, monohydrochloride], the CC50 (48 h, read-out: concentration lethal to 50% of cells (LC50)) was determined as 34.9 ± 3.4 µg/mL. Further, the “MM cell death induced by drug alone” value (bendamustine alone, repeated experiments) was “time and dose-dependent”.

The record behind these values is US20110217258A1, “Combined Use of Bendamustine, Doxorubicin and Bortezomib for the Treatment of Multiple Myeloma” (Indiana University Research and Technology Corporation, priority 2008, published 2011).
